By inhibition is commonly meant how much of the control response was suppressed. Usually IC50 stands for the concentration that gives 50% inhibition. A high value points to lower potency.

In ChEMBL document CHEMBL1128923, “A simple synthesis of biaryl phospholipase A2 inhibitors: Probing hydrophobic effects” (Bioorg Med Chem Lett, 1996) one finds inhibition, ED50 and IC50 data, which are given here for 9 molecules.

Molecules are shown by their SMILES.

In assay [1] the target is T1, Phospholipase A2, membrane associated (Homo sapiens) (UniProt P14555).
T1 sequence (whole entry): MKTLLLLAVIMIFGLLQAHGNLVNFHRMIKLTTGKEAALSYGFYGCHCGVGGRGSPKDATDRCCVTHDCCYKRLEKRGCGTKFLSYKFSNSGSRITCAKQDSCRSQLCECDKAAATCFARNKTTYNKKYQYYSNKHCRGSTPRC
As to the kind of experiment: Compound was evaluated for inhibition of phospholipase A2 (PLA2) isolated from human platelets at a concentration of 100 uM.

The target of assay [2] is T1, Phospholipase A2, membrane associated (Homo sapiens). The assay is described as follows: Compound was evaluated for inhibition of phospholipase A2 (PLA2) isolated from human platelets at a concentration of 10 uM.
The next assay concerns Mus musculus. As to the kind of experiment: Effective dose to reduce mouse ear edema in a phorbol ester induced inflammation assay. The class given is functional.
The target in assay [3] is T2, Phospholipase A2, membrane associated (Homo sapiens, UniProt P14555).
T2 sequence (P14555 whole entry): T1 sequence (whole entry)
The assay is described as follows: Compound was evaluated for inhibition of human platelet phospholipase A2 (HP-PLA2).

Take `O=C(O)c1ccccc1-c1ccccc1C(=O)NC1CCCCCCC1`: the inhibition in assay [1] is 15%; in assay [2], 2%.

For the molecule `O=C(O)c1ccccc1-c1ccccc1C(=O)Nc1ccc2ccccc2c1`, the results for the inhibition in assay [1] and in assay [2] were 8% and 2%, respectively.

Take `CCCCCCCCCCOc1ccc(NC(=O)c2ccccc2-c2ccccc2C(=O)O)cc1OCC(=O)O`: the figures for the inhibition in assay [1] and in assay [2] were 23% and 2%, respectively.

In the case of `CC1(C)CCC(C)(C)c2cc(NC(=O)c3ccccc3-c3ccccc3C(=O)O)ccc21`, the inhibition in assay [1] was determined as 35%; in assay [2], 14%.

In the case of `CC(C)c1ccc2c(c1)CC[C@H]1C[C@](C)(CNC(=O)c3ccccc3-c3ccccc3C(=O)O)CC[C@]21C`, the inhibition worked out at 63% in assay [1] and 6% in assay [2].

With `CC1=C(/C=C/C(C)=C/C=C(/C(C)=C/C(=O)O)c2cccc(C(=O)O)c2)C(C)(C)CCC1`, in the assay on Mus musculus, the ED50 came out at 160 ug ear-1. The IC50 in assay [3] was found to be 40 µM.

For the molecule `CCCCCCCCCCc1ccc(NC(=O)c2ccccc2-c2ccccc2C(=O)O)cc1`, the inhibition in assay [1] is 92%; in assay [2], 26%.

For `CCCCCCCCCCOc1ccc(NC(=O)c2ccccc2-c2ccccc2C(=O)O)cc1OCCCCCCCCCC`, the inhibition in assay [1] was 98%; in assay [2] it was 85%.

Regarding `O=C(O)c1ccccc1-c1ccccc1C(=O)NCCc1c[nH]c2ccc(O)cc12`, the inhibition in assay [1] and in assay [2] was 0% each time.
